Data: PubChem BioAssay AID504322 (Emory University Molecular Libraries Screening Center, 2011)
Calls of active or inactive are those of the source. The rule behind the calls is not given here.

Test system: CHOP reporter cell assay, percent of control
Assay: CHOP reporter inhibitor potency, dose response, cell-based (AID 504322);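 note: CHO cells carrying a CHOP reporter stimulated with tunicamycin to induce ER stress; potency is for inhibition of the stress-induced reporter signal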

Compound	IC50
Cc1ccccc1CS(=O)(=O)c1nnc([C@H](Cc2ccccc2)NC(=O)OC(C)(C)C)o1	4.01 µM
Cc1ccc(NC(=O)c2ccc(C#CC3(O)CCCCC3)cc2)cc1C	> 10 µM (inactive)
CC(C)c1ccc(NC(=O)CSc2nc(-c3ccccc3F)nc3nc[nH]c23)cc1	9.99 µM (inactive)
CCCCCCOC(=O)c1ccccc1N	6.31 µM (inactive)
COc1ccc(-c2cnc(OC(C)(C)C)nc2OC(C)(C)C)cc1OC	4.6 µM (inactive)
COc1ccc(CC2(CO)CCN(CC3=Cc4cc(Cl)ccc4OC3)CC2)cc1	0.87 µM (inactive)
Cc1ccc2sc(N(CCCN(C)C)C(=O)c3nc4ccccc4s3)nc2c1C	9.48 µM (inactive)
COc1ccc(NC(=O)c2cc(-c3cc(C)cc(C)c3O)n[nH]2)cc1Cl	8.79 µM (inactive)
CCc1ccc(OCC(=O)NC(NC(=S)Nc2ccc(Cl)cc2)C(Cl)(Cl)Cl)cc1 (stereo not given)	5.13 µM (inactive)
Oc1ccc(Br)cc1-c1cc(-c2ccccc2F)[nH]n1	> 10 µM (inactive)
Cc1ccc2nc(Nc3ccc4[nH]c(=O)[nH]c4c3)c(-n3nc(C)cc3C)nc2c1	6.47 µM
FC(F)C(F)(F)C(F)(F)C(F)(F)c1cc(-c2ccccc2)n[nH]1	9.67 µM (inactive)
Cc1cc(Nc2ccc(Cl)cc2)nc(NCc2ccccc2)n1	> 10 µM (inactive)
Cc1cc(Nc2cccc([N+](=O)[O-])c2)n2c(nc3ccccc32)c1C#N	4.08 µM (inactive)
N#CC1=C(N)N2C(=C(C#N)C1c1ccc(Br)cc1)Nc1ccccc12 (stereo not given)	> 10 µM (inactive)
O=C(CNc1cccc(C(F)(F)F)c1)N/N=C/c1cccc(Br)c1	> 10 µM (inactive)
COC(=O)c1sc(-c2ccc(C(C)(C)C)cc2)cc1NC(=O)c1ccccc1C(=O)O	8.29 µM (inactive)
FC(F)(F)c1cccc(Sc2nc(-c3ccccc3)nnc2C(F)(F)F)c1	9.58 µM (inactive)
CCc1ccc(/C=C2\SC(=S)N(CCCC(=O)Nc3ccccn3)C2=O)cc1	0.16 µM
CCC(C)[C@@H](NC(=O)OC(C)(C)C)c1nnc(S(=O)(=O)Cc2cccc(C)c2)o1 (stereo not given in full)	4.78 µM
Cc1ccc(N=Cc2cc3c(cc2O)OC(N)=C(C#N)C3c2ccccc2)cc1 (stereo not given)	> 10 µM (inactive)
Cc1ccc(NC(=O)c2ccc(Nc3c([N+](=O)[O-])cc([N+](=O)[O-])cc3[N+](=O)[O-])cc2)cc1	1.81 µM
CC(C)c1nnc(NC(=O)c2c(O)c3cccc4c3n(c2=O)CCC4)s1	4.99 µM (inactive)
O=C(CSC1c2ccccc2-c2ccccc21)N/N=C/c1ccccc1O	> 10 µM (inactive)

Compound	IC50
O=C1N(c2ccccc2)C[C@@H]2C[C@@H](c3cccs3)N3CCC[C@@]123	5.69 µM (inactive)
Cc1ccc(/C=C2\SC(=S)N(CCCC(=O)Nc3ccccn3)C2=O)cc1	0.42 µM
NC(=S)n1[nH]c(-c2ccc([N+](=O)[O-])cc2)c(N=Nc2ccc(Cl)cc2)c1=O	5.74 µM (inactive)
O=C(CCCOc1ccc(Cl)cc1Cl)N/N=C\C1CCCCC1	5.03 µM (inactive)
CSC(SC)=C(C#N)C(=O)c1ccccc1	> 10 µM (inactive)
Cc1ccc(NC(=S)NC(NC(=O)Cc2cccc3ccccc23)C(Cl)(Cl)Cl)cc1 (stereo not given)	> 10 µM (inactive)
CC1=C(CO)C(=O)OC([C@@H](C)C2CC[C@H]3C4C[C@H]5O[C@]56[C@@H](O)C=CC(=O)[C@]6(C)C4CC[C@]23C)C1 (stereo not given in full)	> 10 µM (inactive)
O=C(NC1CCCCC1)C(c1ccc(F)cc1)N(Cc1ccccc1)C(=O)CN1C(=O)c2ccccc2S1(=O)=O (stereo not given)	4.85 µM
CC(C)COc1ccc(/C(=N/O)c2ccccc2)cc1	5.73 µM (inactive)
COc1cc(/C=C/c2nc(N)nc(-c3ccccc3O)n2)cc(OC)c1OC	> 10 µM (inactive)
O=c1c(Br)c(Br)cnn1-c1ccccc1	4.97 µM (inactive)
Cc1ccc(C(=O)Nc2cnc3ccccc3c2)cc1	8.6 µM (inactive)
CNC(=O)c1nnsc1S(=O)(=O)c1ccc(Cl)cc1	4.03 µM
COC(=O)CS(=O)(=O)c1nnc([C@H](Cc2ccccc2)NC(=O)OC(C)(C)C)o1	4.68 µM
COC(=O)C(O)(c1ccc(NC(=S)NC(=O)c2ccc(Cl)cc2Cl)c(C)c1)C(F)(F)F (stereo not given)	9.05 µM (inactive)
C=CCn1c(O)c(C(CC)=Nc2ccc(N(CC)CC)cc2)c(=O)[nH]c1=O	2.56 µM
CCN(CCO)c1ncnc2c1sc1nc(CC(C)C)c3c(c12)CC(C)(C)OC3	9.11 µM (inactive)
CCCc1cc(=O)[nH]c(Nc2ccc(N3CCCCC3)cc2)n1	7.76 µM (inactive)
O=C(COC(=O)Cc1c(Cl)cccc1Cl)Nc1ccc(OC(F)(F)F)cc1	> 10 µM (inactive)
CCc1ccc(-c2cc(C(=O)N3N=C(C(F)F)CC3(O)C(F)F)c3ccccc3n2)cc1 (stereo not given)	5.26 µM (inactive)
COc1ccc(N=c2oc3ccc(OC)cc3cc2-c2nc3ccccc3[nH]2)cc1	9.72 µM (inactive)
CCCCCCn1c(N2CCC(C)CC2)nc2c1c(=O)[nH]c(=O)n2C	5.4 µM (inactive)
O=C(N/N=C/c1cccs1)c1cccc(NC(=O)c2ccc(Cl)cc2)c1	4.15 µM
CCCCn1c(/N=C/c2c[nH]c3ccccc23)nc2ccccc21	6.06 µM (inactive)

Compound	IC50
C=CCn1c(CCc2cc(C(C)(C)C)c(O)c(C(C)(C)C)c2)n[nH]c1=S	7 µM (inactive)
Cc1csc(NC(=O)CSc2nnc3c4ccccc4nc(C(C)(C)C)n23)n1	9.55 µM (inactive)
COc1ccc(Cn2c(SCc3cc(C)ccc3C)nc3cc(OC)c(OC)cc3c2=N)cc1	3.55 µM (inactive)
CC(=O)/C=C/n1c(=S)oc2ccccc21	4.65 µM
CC(C)Cn1c(N)c(C(=O)COC(=O)C2CCCCC2)c(=O)n(C)c1=O	> 10 µM (inactive)
COCCn1cnc2c(c1=O)c1nc3ccccc3nc1n2/N=C/c1cccc(OC)c1	8.74 µM (inactive)
Cc1ccc(NC(=O)c2nc[nH]c2C(=O)N[C@@H](C)C(=O)OC(C)(C)C)cc1	5.12 µM (inactive)
COc1ccc(C(C(=O)NC2CCCCC2)N(C(=O)CCl)c2cccc(Cl)c2)cc1 (stereo not given)	9.57 µM (inactive)
CC1CCN(c2nc3ccc(C(=O)O)cc3s2)CC1	0.71 µM
CCN1/C(=C/C(C)=C/c2sc3ccccc3[n+]2CC)Sc2ccccc21	< 0.16 µM
O=C1C(=O)c2ccc(-c3ccccc3)cc2-c2ccccc21	3.36 µM
COc1cc(/C=N/NC(=O)Nc2ccccc2)ccc1OCCOc1ccccc1C	9.34 µM (inactive)
OC(CNCC1CCCO1)Cn1c2ccc(Br)cc2c2cc(Br)ccc21 (stereo not given)	8.2 µM (inactive)
COC(=O)c1cc(NC(=S)Nc2cc(Cl)cc(Cl)c2)cc(C(=O)OC)c1	> 10 µM (inactive)
O=C(/C=C/c1cccc([N+](=O)[O-])c1)n1cnc2ccccc21	5.36 µM (inactive)
C/C(=C\c1ccco1)C1C(C#N)=C(N)Oc2n[nH]c(-c3ccc(C)cc3)c21 (stereo not given)	> 10 µM (inactive)
O=S(=O)(C/C(=C/CO)S(=O)(=O)c1ccccc1)c1ccccc1	> 10 µM (inactive)
CCC(C)c1ccc(O)c(NC(=O)c2cncc(Br)c2)c1 (stereo not given)	6.67 µM (inactive)
O=C1C(C2=NC(c3ccccn3)C3C(=O)N(c4ccc(OC(F)(F)F)cc4)C(=O)C23)=C(O)c2ccccc21 (stereo not given)	4.57 µM
FC(F)(F)c1cccc(NC(=S)Nc2ccc(Cl)cc2Cl)c1	6.1 µM (inactive)
Cc1cccc(/C=N/Nc2ccc3ccccc3n2)c1	> 10 µM (inactive)
CCOc1cc(/C=N\NC(=O)Cc2ccccc2)ccc1OCC(=O)Nc1ccc(C)c(C)c1	6.38 µM (inactive)
CC(C)Cn1c2c(c(=O)[nH]c1=O)C(C(F)(F)F)(C(F)(F)F)N=C(CCC1CCCCC1)N2	2.37 µM
O=C1c2ccc3c4c(ccc(c24)C(=O)N1c1cccc(O)c1)C(=O)N(c1cccc(O)c1)C3=O	9.81 µM (inactive)

Compound	IC50
COc1ccc2c(C)nc(Nc3nc(C)c(C)c(=O)[nH]3)nc2c1	9.72 µM (inactive)
CCOC(=O)c1cc(-c2cccs2)nc2c1c(C)nn2-c1ccccn1	9.14 µM (inactive)
CCCCCCOC(=O)Nc1ccc(S(=O)(=O)Nc2cccc([N+](=O)[O-])c2)cc1	> 10 µM (inactive)
Cc1nc2c(=O)n(C)c(=O)n(C)c2nc1Cl	3.79 µM (inactive)
COc1oc(-c2ccc(Cl)cc2)nc1C(F)(F)F	1.29 µM
CCCCCC1CC(CC(=O)Nc2ccc([N+](=O)[O-])cc2)C(=O)O1 (stereo not given)	9.17 µM (inactive)
NC(=S)n1[nH]c(-c2ccc([N+](=O)[O-])cc2)c(N=Nc2cccc([N+](=O)[O-])c2)c1=O	4.4 µM (inactive)
Cc1cc(/C=N/n2cnnc2)c(C)n1-c1ccc(OCc2ccc(Cl)cc2)cc1	0.38 µM
CCOc1cc(S(=O)(=O)Nc2ccc(CC)cc2)ccc1Cl	4.48 µM (inactive)
CC(C)(C)c1ccc(S(=O)(=O)NCC(=O)Nc2sc3c(c2C(N)=O)CCCC3)cc1	9.83 µM (inactive)
COC(=O)C(Nc1ccccc1Cl)(c1cc(C)c(O)c(C)c1)C(F)(F)F (stereo not given)	9.66 µM (inactive)
CCOC(=O)c1c(C)[nH]c(C(=O)COC(=O)c2[nH]c(C)c(C(C)=O)c2C)c1C	> 10 µM (inactive)
Oc1ccc(/C=N/Nc2nc(-c3ccc(Cl)cc3)cc(C(F)(F)F)n2)cc1	5.8 µM (inactive)
Cc1ccc(C)c(OCc2ccc(C(=O)N3N=C(C(F)F)CC3(O)C(F)F)o2)c1 (stereo not given)	2.89 µM
C=CCn1c(SCC(=O)Nc2ccc(-c3nc4ccc(C)cc4s3)cc2)nnc1-c1ccccc1	9.89 µM (inactive)
COc1cccc(-n2nnnc2S(C)(=O)=O)c1	5.51 µM (inactive)
CCOc1ccc(C(=O)C(CCC(CN(C)C)C(=O)c2ccc(OCC)cc2)CN(C)C)cc1 (stereo not given)	9.69 µM (inactive)
Cc1cc(/C=N/n2cnnc2)c(C)n1-c1ccc(OCc2ccc(F)cc2)cc1	0.67 µM (inactive)
CN1CCN(CC(=O)N2CCn3c4c(c5cc(C6CCCCC6)ccc53)CCCC42)CC1 (stereo not given)	9.6 µM (inactive)
Cc1ccc(-c2[nH]ncc2/C=N/n2c(COc3ccccc3)nc3ccccc3c2=O)cc1	3.18 µM (inactive)
Cc1cc(C(=O)CCl)c(C)n1-c1cccc(S(=O)(=O)N2CCOCC2)c1	> 10 µM (inactive)
O=C(NCc1ccccc1Cl)c1ccc(S(=O)(=O)Nc2cccc(C(F)(F)F)c2)cc1	> 10 µM (inactive)
Cc1ccc(/C=N/NC(=O)CCCOc2ccc(Cl)cc2Cl)cc1	7.92 µM (inactive)
